# Assay results reported in patent publication US8883841B2, “Oncogenic ras-specific cytotoxic compound and methods of use thereof” (The Board of Regents of the University of Texas System, priority 2005, dated 2014).
# “Also recorded” adds a separate entry of the source. Read-outs that look alike come from different tables or passages of the source.
# What was measured:
# Rad51 = assay: Antibody staining, subcellular localization of Rad51; assay type: cell-based, human; conditions: T29Kt1 cells
# Text: Effects on RNA spliceosome. To investigate the nature of this PKCiota aggregates in the nucleus, the effect of Oncrasin-1 on SC35, a protein required for RNA splicing and assembly of spliceosome (Fu et al., 1992; Vellard et al., 1992), and on Rad51, a homologous DNA recombinase that involves in DNA repair (Benson et al., 1994; Baumann et al., 1996) were studied. […] and DNA repairing are the two important functions executed in the nucleus. In untreated or DMSO-treated cells, SC35 was localized in nucleus as speckles, either diffusely distributed or concentrated as granule clusters (Mistele et al., 1997), whereas Rad51 was more uniformly distributed inside the nucleus. […] This aggregation of SC35 was not observed in Oncrasin resistant T29 cells upon the treatment with Oncrasin-1. […] The effects of Oncrasin on another spliceosome protein, alternative splicing factor/splicing factor 2 (ASF/SF2), was studied (Krainer et al., 1991). […] In the resistant T29 cells, however, such an aggregation is not observed (FIG. 8C).
# [1] = test system: Raf-1, Akt, PKCzeta, PKCdelta, and p53; assay: Immunohistochemical staining, subcellular localization of Raf-1, Akt, PKCzeta, PKCdelta, p53; assay type: cell-based, human; conditions: T29Kt1 or H460 cells, 12 h
# Protocol: Effects on subcellular localization of PKCiota. […] To further investigate molecular mechanisms of Oncrasin action the inventors studied the subcellular localization of several molecules involved in Ras-signaling pathway because the functions of Ras and other proteins are directly related to their subcellular localizations. For this purpose, T29Kt1 or H460 cells were seeded on cover glass slides and treated with DMSO or Oncrasin-1 for 12 h. Cells were then fixed with paraformaldehyde, permeabilized with Triton X-100 and stained with various antibodies for immunohistochemical examination. […] Nevertheless, substantial subcellular localization change was detected for PKCiota after Oncrasin-1 treatment (FIG. 6). In both H460 and T29Kt1 cells, both PKCiota and PKCzeta were diffusely distributed in cells with high concentration on cell membrane in nucleus, consisting with previous reports that aPKC contains both nuclear localization signal (NLS) and nuclear export signal (NES), and can shuttle between cytoplasm and nucleus, which was regulated by intramolecular conformational changes, phosphorylation or by treatment with growth factors (Perander et al., 2001; White et al., 2002; Neri et al., 1999). […] Such aggregation of PKCiota was not observed in Oncrasin-resistant T29 and H1299 cells. […]
# H460 cells [2] = assay: PKCiota siRNA knockdown, apoptosis by FACS in H460 cells; assay type: cell-based, human; conditions: 1 μM, 12 h
# Protocol: (§1) Knockdown of PKCiota suppressed Oncrasin-mediated apoptosis and cytotoxicity. To investigate possible role of PCKiota in Oncrasin-1 mediated cytotoxicity, PKCiota was knocked down in H460 cells by using oligo ribonucleotides. H460 cells were treated with 200 pM PKCiota siRNA for 24 h, and then with DMSO or 1 μM Oncrasin for another 12 h. After that, cells harvested for analysis of apoptosis by fluorescence-activated cell sorting (FACS) and for expression of PKCiota by Western blot analysis. […] To further study the effect of atypical PKC in Oncrasin-induced cytotoxicity, the inventors obtained plasmids encoding PKCiota and PKCzeta siRNA from Origene Corporation and made stable PKCiota and PKCzeta knockdown T29Kt1 cells. […] The IC50 in PKCiota knockdown T29Kt1 cells were 100 fold higher than parental T29K cells. […] Thus, compounds with synthetic lethality for PKCiota might be useful for treatment of those cancers.
# Raf-1 = assay: Western blot analysis of Raf-1 expression; assay type: cell-based, human; conditions: listed as Oncrasin-1
# Protocol: (§2) Ras Signaling Pathway and Molecular Mechanisms of Oncrasin-induced apoptosis. To investigate molecular mechanisms of apoptosis induction by Oncrasin compounds, levels several proteins that are involved in apoptosis and/or involved in Ras signaling pathways were determined, including Bax, Bik, Bc12, Bcl-XL, Raf-1, B-Raf, Akt, Mst1 and atypical protein kinase C (aPKC) zeta and PKCiota. To study which molecules are affected by Oncrasin treatment, T29, T29Kt1 and H460 cells were treated with Oncrasin-1 at an optimal concentration, around IC60 to IC80 for T29Kt1 and H460 cells. Cell lysates were collected 12 h after the treatment and subjected to Western blot analysis.
# Suppression of Raf-1 expression by Oncrasin-1. […] To elucidate the roles of Raf-1 in Oncrasin-induced apoptosis, the inventors evaluated the expression of Raf-1 in H460 cells after treatment with different concentrations of Oncrasin-1. […] Because Raf-1 executes anti-apoptosis function via a variety of pathways. […] However, the resistance to Oncrasin-1 was more prominent in the constitutively active Raf-1-transfected cells than in cells with the wild-type Raf-1 (FIG. 10C and FIG. 10D).
# wild-type MEF = assay: Icmt-dependent growth inhibition, wild-type MEF; assay type: cell-based, mouse; conditions: up to 100 μM
# Text: Oncrasin and Oncrasin Analogs. Chemically, Oncrasin-1 has the same core structure as indole-3-carbinol, a naturally occurring constituent of many plant foods that has been tested for the prevention and treatment of cancer (Brignall, 2001; Kelloff et al., 1996; Chinni et al., 2001). Oncrasin-1 also has structural similarity to sulindac (Taylor et al., 2000; Sun et al., 2002) and lonidamine (Ravagnan et al., 1999; Papaldo et al., 2003), both of which have been evaluated preclinically and clinically for treatment of cancers. […] Oncrasin compounds also bear a indole core structure as the small-molecule inhibitor of isoprenylcysteine carboxylmethyltransferase (Icmt), 2-[5-(3-methylphenyl)-1-octyl-1H-indol-3-yl]acetamide (cysmethynil), which also induces antitumor activity in Ras gene mutant cancer cells (Winter-Vann et al., 2005). […] Both wild-type MEF and Icmt−/− MEF (Bergo et al., 2004) (kindly provided by Dr. S G Young at the University of California, San Francisco) were resistant to Oncrasin-1.
# [3] = test system: PKCiota knockdown T29Kt1 cells; assay: Cell viability in stable PKCiota knockdown T29Kt1 cells; assay type: cell-based, human
# Protocol: as §1
# H460 cells [4] = assay: K-Ras siRNA knockdown, Oncrasin-induced apoptosis by FACS in H460 cells; assay type: cell-based, human; conditions: 1 μM, 12 h, compared with DMSO
# Protocol: K-Ras knockdown inhibited Oncrasin-induced apoptosis. To further study the role of K-Ras gene in Oncrasin-induced cell death, H460 cells were treated with […] of K-Ras specific siRNA or a control siRNA for 24 h. The cells were then treated with DMSO or 1 μM Oncrasin-1. After another 12 h, the cells were harvested for apoptosis detection by fluorescence-activated cytometric assay. The cell lysate was also used to detect K-Ras gene expression.
# Akt = assay: Western blot analysis of Akt; assay type: cell-based, human; conditions: 1 μM, 12 h
# Protocol: as §2
smiles,measurement,setting,value
"O=Cc1cn(Cc2ccc(Cl)cc2)c2ccccc12 [Oncrasin K001, 1H-Indole-3-carboxaldehyde, 1-[(4-chlorophenyl)methyl]-(9CI)]",effect on Rad51,Rad51,no obvious effect
same,toxicity to T29 cells,T29 cells; at 33 μM (the highest concentration tested),not toxic
same,toxicity to T29 cells,T29 cells; at any of the doses tested (dose response),not toxic
same,cytotoxicity in T29 cells,"T29 cells; up to 100 μM, the highest concentration tested",no detectable cytotoxicity
same,"subcellular localization of Raf-1, Akt, PKCzeta, PKCdelta, and p53",[1],did not induce obvious changes
same,apoptosis in H460 cells after knockdown of PKCiota by siRNA,H460 cells [2],dramatically suppressed Oncrasin-induced apoptosis
same,Raf-1 level in H460 cells,Raf-1,dramatically reduces raf-1; also recorded: down regulation; also recorded: dramatically reduced Raf-1 production; also recorded: dramatic reduction in Raf-1
same,"growth inhibition, wild-type MEF",wild-type MEF,resistant
same,susceptibility of stable PKCiota knockdown T29Kt1 cells,[3]; cell viability analysis,almost complete resistance
same,IC50 in PKCiota knockdown T29Kt1 cells relative to parental T29K cells,[3]; stable knockdown,100 fold
same,"apoptotic cells, control siRNA treated H460",H460 cells [4],dramatic increase of apoptotic cells
same,Akt level in H460 cells,Akt,down regulation
